What was measured:
KLN = test: Cell growth assay (sulforhodamine B), KLN cells; type: cell-based, mouse; conditions: Mus musculus, 120 h, 5 days, SRB
Procedure: […] Plates were then incubated with 0.4% SRB in 1% acetic acid for 1 h, washed with 1% acetic acid to remove the unbound dye, and air-dried. The bound dye was solubilized by addition of 10 mM Tris (pH 10), and the absorbance was determined in a Titertek Multiscan plate reader at 490 nm. The data calculations were carried out as described (the values for mean±SD of data from replicate wells are calculated): data are expressed in terms of % T/C [(OD of treated cells/OD of control cells)×100], as a measure of cell viability and survival in the presence of test materials. Calculations are also made for the concentration of test agents giving a T/C value of 50%, or 50% growth inhibition (IC50). With the SRB assay, a measure is made of the cell population density at time 0 (the time at which drugs are added) from two extra reference plates of inoculated cells fixed with TCA just prior to drug addition to the test plates. Thus, we have three measurements: control optical density (C), test optical density (T), and optical density at time zero (T0). The calculation is 100×[(T−T0)/(C−T0)]. If T is less than T0, cell killing has occurred and can be calculated from 100×[(T−T0)/T0]. Thus, for each drug-cell line combination, a dose-response curve is generated and three levels of effect are calculated.

CRL-2351 = test: Cell growth assay (sulforhodamine B), CRL-2351 cells; type: cell-based, human; conditions: Homo sapiens, 120 h, 5 days, SRB
Procedure: (§1) Adherent mouse (KLN) and human solid tumor cells (CRL-2351, and CRL-2813) were plated in 96-well plates and maintained for 5 days in the presence of 0.54 to 6 μM of individual compound, and cell proliferation was measured by the sulforhodamine B (SRB) assay as described in ref. 11: briefly, cells were fixed in 10% cold trichloroacetic acid at 4° C. for 1 h, extensively washed with double-distilled H2O and air-dried. Plates were then incubated with 0.4% SRB in 1% acetic acid for 1 h, washed with 1% acetic acid to remove the unbound dye, and air-dried. The bound dye was solubilized by addition of 10 mM Tris (pH 10), and the absorbance was determined in a Titertek Multiscan plate reader at 490 nm. The data calculations were carried out as described (the values for mean±SD of data from replicate wells are calculated): data are expressed in terms of % T/C [(OD of treated cells/OD of control cells)×100], as a measure of cell viability and survival in the presence of test materials. Calculations are also made for the concentration of test agents giving a T/C value of 50%, or 50% growth inhibition (IC50). With the SRB assay, a measure is made of the cell population density at time 0 (the time at which drugs are added) from two extra reference plates of inoculated cells fixed with TCA just prior to drug addition to the test plates. Thus, we have three measurements: control optical density (C), test optical density (T), and optical density at time zero (T0). The calculation is 100×[(T−T0)/(C−T0)]. If T is less than T0, cell killing has occurred and can be calculated from 100×[(T−T0)/T0]. Thus, for each drug-cell line combination, a dose-response curve is generated and three levels of effect are calculated.

[1] = tested on: eIF2•GTP•Met-tRNAi ternary complex; test: Ternary complex assay (ATF-4 assay), dual luciferase firefly/renilla ratio; type: cell-based, mouse; conditions: Mus musculus; for maximal fold induction at 40 µM: read-out: ATF-4 Xmax @ 40 μM; for maximal fold induction at 80 µM / maximal fold induction at 10 µM / maximal fold induction at 20 µM / maximal fold induction at 2.5 µM: read-out: ATF-4 Xmax
Text: For assay development, a bi-directional plasmid was designed in which a common promoter/enhancer complex drives the transcription of firefly luciferase (F-luc) ORF fused to the 5′ untranslated region (UTR) of ATF-4, and of the renilla luciferase (R-luc) ORF fused to a 90-nucleotide 5′ UTR derived from the plasmid (FIG. 6A). Because the tetracycline-regulated transactivator ((tTA), required for driving transcription from this vector) is not normally expressed in the mammalian cells, stable KLN cancer cells were constructed that expressed tTA (KLN-tTA).
The KLN-tTA colonies that drove expression of reporter genes from pBISA-DL plasmid were selected by transient transfection and dual luciferase assay. One of these KLN-tTA cell lines was transfected with the pBISA-DL^(ATF-4) expression vector, stable colonies were selected by dual luciferase assay and expanded.
Plasmids and Ternary Complex Assay
(ATF-4 Assay). Briefly, bi-directional mammalian expression vector pBI (Clontech, CA) was modified to expand the multiple cloning sites (MCSs) and designated thereafter as pBISA. This vector contains seven copies of the tetracycline-regulated transactivator response element (TRE), which together act as core promoter/enhancer. The TRE is flanked on both sides by minimal human cytomegalovirus (CMV) minimal promoters allowing bi-directional transcription and two MCSs. Firefly and renilla luciferases were subcloned into MCS-I and MCS-II, respectively. This plasmid, designated pBISA-DL, transcribes two mRNAs that contain the 90 nucleotide plasmid derived 5′UTR (same sequence in both mRNAs), and the ORF encoding either firefly or renilla luciferase followed by a polyadenylation sequence as described in Ziegeler, G.; Ming, J.; Koseki, J. C.; Sevinc, S.; Chen, T.; Ergun, S.; Qin, X.; Aktas, B. H. J. Biol. Chem. 2010, 285, 15408 hereby incorporated by reference. This plasmid was further modified by inserting the 5′UTR of ATF-4 into MCS-I in front of the firefly luciferase mRNA. Transcription from this direction generates an mRNA that contains the firefly luciferase ORF preceded by a 5′UTR composed of 90 nucleotides derived from the plasmid and 267 nucleotides derived from the 5′UTR of ATF-4 mRNA. Transcription from the other direction generates an mRNA that contains the renilla luciferase ORF proceeded only by the 90-nucleotide plasmid-derived sequence in the 5′UTR. This expression plasmid is called pBISA-DL(ATF-4). In the dual luciferase assay, cells expressing firefly and renilla luciferases were lysed and the extracts assayed with a Dual-Glo Luciferase assay kit, per manufacturer's instruction (Promega Inc., Madison, Wis.). The data calculations were carried out as the ratio of firefly to renilla luciferase signal as described in Chen, T.; Ozel, D.; Qiao, Y.; Harbinski, F.; Chen, L.; Denoyelle, S.; He, X.; Zvereva, N.; Supko, J. G.; Chorev, M.; Halperin, J. A.; Aktas, B. H. Nat. Chem. Biol. 2011, 7, 610 hereby incorporated by reference.

CRL-2813 = test: Cell growth assay (sulforhodamine B), CRL-2813 cells; type: cell-based, human; conditions: Homo sapiens, CRL2813, 120 h, 5 days, SRB
Procedure: as §1

| SMILES | IC50 (KLN) [µM] | IC50 (CRL-2351) [µM] | maximal fold induction at 40 µM [1] | IC50 (CRL-2813) [µM] | maximal fold induction at 80 µM [1] | maximal fold induction at 10 µM [1] | maximal fold induction at 20 µM [1] | maximal fold induction at 2.5 µM [1] |
| --- | --- | --- | --- | --- | --- | --- | --- | --- |
| CN(C)CCOc1ccc(C(C)(C)C)cc1C1(c2cc(C(C)(C)C)ccc2OCCN(C)C)C(=O)Nc2ccccc21 [HY177] | > 20 | 11.5 ± 1.5 | 1.34 ± 0.38 | 12.5 ± 1 | – | – | – | – |
| COC(=O)c1cccc2c1NC(=O)C2(c1ccc(OC)cc1)c1cc(C(C)(C)C)ccc1O (stereo not drawn) [Sd202] | > 20 | 3.4 ± 0.6 | 4.12 ± 0.42 | 12.2 ± 0.5 | – | – | – | – |
| CC(C)(C)c1ccc(O)c(C2(c3cc(C(C)(C)C)ccc3O)C(=O)Nc3c2ccc(F)c3F)c1 [HY036, 3,3-Bis(5-tert-Butyl-2-Hydroxyphenyl)-6,7-Difluoroindolin-2-One] | 11.2 ± 3.2 | 2.4 ± 0.6 | 4.45 ± 1.07 | 2.7 ± 0.1 | – | – | – | – |
| CC(C)(C)c1ccc(OCC(=O)O)c(C2(c3ccccc3)C(=O)Nc3ccccc32)c1 (stereo not drawn) [Sd177] | > 20 | > 20 | – | > 20 | 1.65 ± 0.04 | – | – | – |
| CN(C)CCOc1ccc(C(C)(C)C)cc1C1(c2cc(C(C)(C)C)ccc2O)C(=O)N(CCN(C)C)c2ccccc21 (stereo not drawn) [HY277] | 0.3 ± 0.1 | 0.3 ± 0.11 | – | 0.9 ± 0.1 | – | 14.3 ± 1.86 | – | – |
| CC(C)(C)c1ccc(O)c(C2(c3cc(C(C)(C)C)ccc3OCCN3CCCC3)C(=O)Nc3ccccc32)c1 (stereo not drawn) [HY091] | 1.4 ± 0.4 | 1 | – | 10.7 ± 0.8 | – | 2.73 ± 0.65 | 5.3 ± 0.7 | – |
| COc1ccc(OC)c(C2(c3cc(O)ccc3OC)C(=O)Nc3ccccc32)c1 (stereo not drawn) [HY055] | 15.6 ± 0.4 | 9 | – | 9.7 ± 2 | 1.2 ± 0.6 | – | – | – |
| CC(C)(C)c1ccc(OCCN2CCCC2)c(C2(c3cc(C(C)(C)C)ccc3OCCN3CCCC3)C(=O)N(CCN3CCCC3)c3ccccc32)c1 [HY193] | 2.11 ± 1.1 | 0.55 ± 0.17 | 9.09 | 1.47 ± 1 | – | – | – | 12.1 ± 1.8 |
| CC(C)(C)c1ccc(O)c(C2(c3ccccc3)C(=O)Nc3ccc(I)cc32)c1 (stereo not drawn) [Sd223] | 14.9 ± 3.8 | 3.5 | 7.2 ± 1.2 | 2.8 ± 0.2 | – | – | – | – |
| O=C1Nc2ccccc2C1(c1cc(C2CCCC2)ccc1OCCO)c1cc(C2CCCC2)ccc1OCCO [HY058] | 15.2 ± 1.1 | 2.4 ± 0.1 | – | 1.3 ± 0.4 | – | – | 3.35 ± 0.74 | – |
| CN1CCN(CCOc2ccc(C(C)(C)C)cc2C2(c3cc(C(C)(C)C)ccc3OCCN3CCN(C)CC3)C(=O)Nc3ccccc32)CC1 [HY413] | 0.85 ± 0.02 | 0.2 ± 0.08 | – | 0.74 ± 0.01 | – | 9.7 ± 3.8 | – | – |
| CC(C)(C)c1ccc(OCCN2CCOCC2)c(C2(c3ccccc3)C(=O)Nc3ccccc32)c1 (stereo not drawn) [Sd029, 3-(5-tert-Butyl-2-(2-morpholinoethoxy)phenyl)-3-phenylindolin-2-one] | 6.8 ± 3.7 | 3.35 ± 0.3 | 4 ± 0.1 | 2.4 ± 0.3 | – | – | – | – |
| CC(C)(C)c1ccc(O)c(C2(c3ccccc3)C(=O)Nc3ccc4ncsc4c32)c1 (stereo not drawn) [Sd233] | 8 | 2.2 ± 1 | 1.2 ± 0.05 | 0.95 ± 0.1 | – | – | – | – |
| CC(C)(C)c1ccc(OCCN2CCCCC2)c(C2(c3cc(C(C)(C)C)ccc3OCCN3CCCCC3)C(=O)Nc3ccccc32)c1 [HY172] | 1.3 ± 0.3 | 2.14 ± 1.28 | – | 11.6 ± 1.4 | 5.91 ± 0.52 | – | – | – |
| CC(C)(C)c1ccc(OCCN2CCNCC2)c(C2(c3ccccc3)C(=O)Nc3ccccc32)c1 (stereo not drawn) [Sd049, 33-{5-tert-butyl-2-[2-(piperazin-1-yl)ethoxy]phenyl}-3-phenylindol-2-one] | 1.2 ± 0.3 | 0.9 ± 0.1 | – | 12.8 ± 0.8 | – | – | 2.1 ± 0.65 | – |
| COc1ccc(C(C)C)cc1C1(c2cc(C(C)C)ccc2O)C(=O)Nc2ccccc21 (stereo not drawn) [HY161] | > 20 | 7.2 ± 3 | 3.91 ± 0.65 | 1.4 ± 0.09 | – | – | – | – |
| CN(C)CCOc1ccc(C(C)(C)C)cc1C1(c2cc(C(C)(C)C)ccc2OCCN(C)C)C(=O)N(CCN(C)C)c2ccccc21 [HY092] | 0.2 ± 0.03 | 0.34 ± 0.18 | – | 0.9 ± 0.01 | – | – | – | 16.8 ± 2.18 |
| CN1CCN(CCOc2ccc(C(C)(C)C)cc2C2(c3cc(C(C)(C)C)ccc3O)C(=O)Nc3ccccc32)CC1 (stereo not drawn) [HY080] | 2.9 ± 0.8 | 0.75 ± 0.1 | – | 1.4 ± 0.5 | – | – | 24.6 ± 3.37 | – |
| CN(C)c1ccc(C2(c3cc(C(C)(C)C)ccc3OCCN3CCOCC3)C(=O)Nc3c2ccc(F)c3F)cc1 (stereo not drawn) [Sd163] | 15.7 ± 1.9 | 4 ± 1 | – | 11 ± 1.3 | 5.1 ± 0.1 | – | – | – |
